Laboratory results published in paper PMC3899232, “Peptide Binding Properties of the Three PDZ Domains of Bazooka (Drosophila Par-3)” (PLoS ONE, 2014).
Several values for one entry are separate records, joined by “and”; a condition that tells them apart may be missing. Identical values can stand only once. One block for each molecule: values may come before it. Ends that are not written are not given here. Peptide text beside a SMILES is read from it. * marks the point of attachment. Biotin = O=C1N[C@H]2[C@H](CS[C@H]2CCCCC(=O)*)N1

Experiments:
GST-PDZ1 (Baz PDZ1) = GST-PDZ1 (Baz PDZ1) (Drosophila melanogaster, UniProt Q0KHR3); test: SPR binding of peptides to immobilized GST-PDZ1 (Biacore 3000); settings: for Kd: GST-PDZ1 immobilized on CM5 at 30 µg/ml in 10 mM sodium acetate pH 5.5, HBS-EP running buffer pH 7.4, 1:1 binding model with drifting baseline
Procedure: (§1) To test the binding of purified peptides to the PDZ domain GST fusion proteins, we acquired one peptide for each PDZ domain corresponding to single peptides identified by phage display (Fig. 3A). We separately immobilized PDZ domain GST fusion proteins on solid supports and analyzed peptide binding by surface plasmon resonance (SPR).
(§2) Binding experiments were conducted with a Biacore 3000 biosensor (GE Healthcare, USA), as described. Specifically, the GST fusion proteins of each PDZ domain alone or of the PDZ domains in tandem were immobilized on CM5 chips (GE Healthcare) at a concentration of 30 µg/ml in 10 mM sodium acetate (pH 5.5) for PDZ1, PDZ3 and PDZ1-3, and in 10 mM HEPES (pH 7.0) for PDZ2. The peptides for SPR were biotinylated but otherwise identical to those indentified by phage display (Peptide 1, Biotin-SAPGGGLRIVNGLWIF; Peptide 2, Biotin-SAPGGGDREWWV; Peptide 3, Biotin-SAPGGGRVLWFDLGIF; synthesized by Sheldon Biotechnology Centre, McGill University, Canada). All peptides were solubilized in HBS-EP running buffer (10 mM Hepes pH 7.4, 150 mM NaCl, 3 mM EDTA, 0.005% Surfactant P20) and were flowed over the immobilized proteins in this buffer. For Peptide 1 and Peptide 3, KD values were determined with a 1∶1 binding model with drifting baseline. For Peptide 2, KD values were determined with a steady state model.

[1] = biological target: GST-PDZ1-3 (Baz PDZ domains in tandem) (Drosophila melanogaster, UniProt Q0KHR3); test: SPR binding of peptides to immobilized tandem GST-PDZ1-3 (Biacore 3000); settings: for KD values of GST-PDZ1-3 compared with single GST-PDZ domains (in words): SPR, HBS-EP pH 7.4, tandem versus single PDZ domain alone; for Kd: tandem GST-PDZ1-3 immobilized on CM5 at 30 µg/ml in 10 mM sodium acetate pH 5.5, HBS-EP running buffer pH 7.4
Description: With the binding strengths of individual PDZ domain-peptide interactions quantified, we next investigated whether the natural tandem arrangement of the PDZ domains affects their peptide binding. For these experiments, we purfied GST-PDZ1-3 and confirmed its stability by SDS-PAGE (Fig. 2B). To test the binding properties of the individual PDZ domains within the tandem, we separately probed GST-PDZ1-3 with Peptides 1, 2 and 3. […] To assess binding quantitatively, we determined the KD values of GST-PDZ1-3 binding to each peptide. […] Thus, the peptide binding pockets of each PDZ domain appear to be unaffected by tandem organization of the PDZ domains.
as §2

GST-PDZ2 (Baz PDZ2) = GST-PDZ2 (Baz PDZ2) (Drosophila melanogaster, UniProt Q0KHR3); test: SPR binding of peptides to immobilized GST-PDZ2 (Biacore 3000); settings: for Kd: GST-PDZ2 immobilized on CM5 at 30 µg/ml in 10 mM HEPES pH 7.0, HBS-EP running buffer pH 7.4, steady state model
Procedure: as §1, §2

GST-PDZ3 (Baz PDZ3) = GST-PDZ3 (Baz PDZ3) (Drosophila melanogaster, UniProt Q0KHR3); test: SPR binding of peptides to immobilized GST-PDZ3 (Biacore 3000); settings: for Kd: GST-PDZ3 immobilized on CM5 at 30 µg/ml in 10 mM sodium acetate pH 5.5, HBS-EP running buffer pH 7.4, 1:1 binding model with drifting baseline
Procedure: as §1, §2

[2] = biological target: GST-Baz PDZ1-3 (fusion protein containing all three PDZ domains and their normal linker regions) (Drosophila); test: SPR; Biacore 3000; GST fusion protein immobilised on CM5 chip (30 µg/ml in 10 mM sodium acetate pH 5.5); Peptide 1 or Peptide 3 flowed in HBS-EP (10 mM Hepes pH 7.4, 150 mM NaCl, 3 mM EDTA, 0.005% Surfactant P20); 1:1 binding model with drifting baseline
[3] = biological target: GST-PDZ1 (GST fusion protein of Baz PDZ1) (Drosophila); test: as above
[4] = biological target: GST-Baz PDZ1-3 (fusion protein containing all three PDZ domains and their normal linker regions) (Drosophila); test: SPR; Biacore 3000; GST fusion protein immobilised on CM5 chip (30 µg/ml; PDZ2 in 10 mM HEPES pH 7.0, PDZ1-3 in 10 mM sodium acetate pH 5.5); Peptide 2 flowed in HBS-EP (10 mM Hepes pH 7.4, 150 mM NaCl, 3 mM EDTA, 0.005% Surfactant P20); steady state model
[5] = biological target: GST-PDZ2 (GST fusion protein of Baz PDZ2) (Drosophila); test: as above
[6] = biological target: GST-PDZ3 (GST fusion protein of Baz PDZ3) (Drosophila); test: SPR; Biacore 3000; GST fusion protein immobilised on CM5 chip (30 µg/ml in 10 mM sodium acetate pH 5.5); Peptide 1 or Peptide 3 flowed in HBS-EP (10 mM Hepes pH 7.4, 150 mM NaCl, 3 mM EDTA, 0.005% Surfactant P20); 1:1 binding model with drifting baseline
[7] = replicate 1 (separately purified proteins, separately prepared peptides)
[8] = replicate 2 (separately purified proteins, separately prepared peptides)
[9] = replicate 1 (separately purified proteins, separately prepared peptides), Peptides 1 and 3: 1:1 binding model with drifting baseline
[10] = replicate 2 (separately purified proteins, separately prepared peptides), Peptides 1 and 3: 1:1 binding model with drifting baseline

GST-PDZ1-3 (Baz PDZ domains in tandem), sequence (Q0KHR3 1-1520): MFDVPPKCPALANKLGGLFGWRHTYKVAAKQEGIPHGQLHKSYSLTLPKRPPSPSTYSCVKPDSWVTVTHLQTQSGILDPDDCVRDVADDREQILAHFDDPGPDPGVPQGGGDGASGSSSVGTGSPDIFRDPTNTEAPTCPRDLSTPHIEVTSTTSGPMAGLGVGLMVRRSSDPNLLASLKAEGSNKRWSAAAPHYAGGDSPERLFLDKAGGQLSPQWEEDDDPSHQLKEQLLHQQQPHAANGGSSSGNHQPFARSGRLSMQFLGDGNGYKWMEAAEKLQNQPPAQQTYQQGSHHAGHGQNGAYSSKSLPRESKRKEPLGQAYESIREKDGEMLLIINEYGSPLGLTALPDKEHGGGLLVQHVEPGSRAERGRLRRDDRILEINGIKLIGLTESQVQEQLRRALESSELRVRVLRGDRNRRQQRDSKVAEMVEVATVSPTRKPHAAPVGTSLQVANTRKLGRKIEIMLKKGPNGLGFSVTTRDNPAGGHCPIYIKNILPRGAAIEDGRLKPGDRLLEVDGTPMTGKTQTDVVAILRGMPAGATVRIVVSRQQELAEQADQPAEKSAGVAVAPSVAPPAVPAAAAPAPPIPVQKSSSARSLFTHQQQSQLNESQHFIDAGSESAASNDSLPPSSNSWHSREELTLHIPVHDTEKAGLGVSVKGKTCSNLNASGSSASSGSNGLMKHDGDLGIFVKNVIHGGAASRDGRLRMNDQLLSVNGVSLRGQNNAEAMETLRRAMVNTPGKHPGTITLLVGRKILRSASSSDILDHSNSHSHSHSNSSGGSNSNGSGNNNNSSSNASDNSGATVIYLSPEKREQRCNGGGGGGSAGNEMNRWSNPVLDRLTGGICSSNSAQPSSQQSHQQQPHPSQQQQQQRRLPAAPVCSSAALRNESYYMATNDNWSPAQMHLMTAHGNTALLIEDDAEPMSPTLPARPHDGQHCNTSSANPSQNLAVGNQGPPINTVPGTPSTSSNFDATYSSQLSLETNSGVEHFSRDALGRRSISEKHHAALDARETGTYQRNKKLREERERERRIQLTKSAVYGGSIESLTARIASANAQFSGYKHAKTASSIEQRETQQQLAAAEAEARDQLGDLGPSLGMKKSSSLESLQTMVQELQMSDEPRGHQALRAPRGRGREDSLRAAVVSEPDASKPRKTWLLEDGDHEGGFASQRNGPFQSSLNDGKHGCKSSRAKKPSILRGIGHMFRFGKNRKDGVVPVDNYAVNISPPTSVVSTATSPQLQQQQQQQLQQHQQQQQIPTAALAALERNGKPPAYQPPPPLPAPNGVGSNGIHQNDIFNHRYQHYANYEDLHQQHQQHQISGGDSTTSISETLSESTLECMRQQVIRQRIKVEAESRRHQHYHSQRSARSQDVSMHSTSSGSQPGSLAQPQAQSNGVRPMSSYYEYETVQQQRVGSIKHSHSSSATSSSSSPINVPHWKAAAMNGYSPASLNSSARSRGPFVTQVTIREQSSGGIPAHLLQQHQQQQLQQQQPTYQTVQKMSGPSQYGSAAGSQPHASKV
GST-PDZ1 (Baz PDZ1), sequence (Q0KHR3 1-1520): as above
GST-PDZ3 (Baz PDZ3), sequence (Q0KHR3 1-1520): as above
GST-PDZ2 (Baz PDZ2), sequence (Q0KHR3 1-1520): as above

KD values (in words) (GST-PDZ1 (Baz PDZ1); SPR, HBS-EP pH 7.4, GST-PDZ1, summary of Table 1): in the nM range | Kd (GST-PDZ1 (Baz PDZ1); [7]): 164 nM | Kd (GST-PDZ1 (Baz PDZ1); [8]): 186 nM | Kd [1, 9]: 263 nM | Kd [1, 10]: 245 nM
Molecule: CC[C@H](C)[C@H](NC(=O)[C@H](Cc1c[nH]c2ccccc12)NC(=O)[C@H](CC(C)C)NC(=O)CNC(=O)[C@H](CC(N)=O)NC(=O)[C@@H](NC(=O)[C@@H](NC(=O)[C@H](CCCNC(=N)N)NC(=O)[C@H](CC(C)C)NC(=O)CNC(=O)CNC(=O)CNC(=O)[C@@H]1CCCN1C(=O)[C@H](C)NC(=O)[C@H](CO)NC(=O)CCCC[C@@H]1SC[C@@H]2NC(=O)N[C@@H]21)[C@@H](C)CC)C(C)C)C(=O)N[C@@H](Cc1ccccc1)C(=O)O [Peptide 1, Biotin-SAPGGGLRIVNGLWIF] (Biotin-SAPGGGLRIVNGLWIF-OH)
KD values of GST-PDZ1-3 compared with single GST-PDZ domains (in words) [1]: very close to those of each GST-PDZ domain alone

KD values (in words) (GST-PDZ2 (Baz PDZ2); SPR, HBS-EP pH 7.4, GST-PDZ2, summary of Table 1): in the µM range | Kd (GST-PDZ2 (Baz PDZ2); [7]): 17700 nM | Kd (GST-PDZ2 (Baz PDZ2); [8]): 13000 nM | Kd ([1]; replicate 1 (separately purified proteins, separately prepared peptides), Peptide 2: steady state model): 9130 nM | Kd ([1]; replicate 2 (separately purified proteins, separately prepared peptides), Peptide 2: steady state model): 9980 nM
Molecule: CC(C)[C@H](NC(=O)[C@H](Cc1c[nH]c2ccccc12)NC(=O)[C@H](Cc1c[nH]c2ccccc12)NC(=O)[C@H](CCC(=O)O)NC(=O)[C@H](CCCNC(=N)N)NC(=O)[C@H](CC(=O)O)NC(=O)CNC(=O)CNC(=O)CNC(=O)[C@@H]1CCCN1C(=O)[C@H](C)NC(=O)[C@H](CO)NC(=O)CCCC[C@@H]1SC[C@@H]2NC(=O)N[C@@H]21)C(=O)O [Peptide 2, Biotin-SAPGGGDREWWV] (Biotin-SAPGGGDREWWV-OH)
KD values of GST-PDZ1-3 compared with single GST-PDZ domains (in words) [1]: very close to those of each GST-PDZ domain alone

KD values (in words) (GST-PDZ3 (Baz PDZ3); SPR, HBS-EP pH 7.4, GST-PDZ3, summary of Table 1): in the nM range | Kd (GST-PDZ3 (Baz PDZ3); [7]): 45.9 nM | Kd (GST-PDZ3 (Baz PDZ3); [8]): 25.2 nM | Kd [1, 9]: 49.4 nM | Kd [1, 10]: 32.6 nM
Molecule: CC[C@H](C)[C@H](NC(=O)CNC(=O)[C@H](CC(C)C)NC(=O)[C@H](CC(=O)O)NC(=O)[C@H](Cc1ccccc1)NC(=O)[C@H](Cc1c[nH]c2ccccc12)NC(=O)[C@H](CC(C)C)NC(=O)[C@@H](NC(=O)[C@H](CCCNC(=N)N)NC(=O)CNC(=O)CNC(=O)CNC(=O)[C@@H]1CCCN1C(=O)[C@H](C)NC(=O)[C@H](CO)NC(=O)CCCC[C@@H]1SC[C@@H]2NC(=O)N[C@@H]21)C(C)C)C(=O)N[C@@H](Cc1ccccc1)C(=O)O [Peptide 3, Biotin-SAPGGGRVLWFDLGIF] (Biotin-SAPGGGRVLWFDLGIF-OH)
KD values of GST-PDZ1-3 compared with single GST-PDZ domains (in words) [1]: very close to those of each GST-PDZ domain alone

Kd [2]: 263 nM and 245 nM | Kd [3]: 164 nM and 186 nM
Molecule: Biotin-SAPGGGLRIVNGLWIF [Peptide 1 (Biotin-…)]

Kd [4]: 9130 nM and 9980 nM | Kd [5]: 17700 nM and 13000 nM
Molecule: Biotin-SAPGGGDREWWV [Peptide 2 (Biotin-…)]

Kd [2]: 49.4 nM and 32.6 nM | Kd [6]: 25.2 nM and 45.9 nM
Molecule: Biotin-SAPGGGRVLWFDLGIF [Peptide 3 (Biotin-…)]
